The source of these data is PMC5218480 (PLoS ONE, 2017).

The test system of this test is MV-4-11 cells. Description: Gene expression microarray analysis (Affymetrix PrimeView) and GSEA. Type of test: cell-based, human. Set-up: RFU PODN (11730768_x_at) / Fold change /veh PODN (11730768_x_at) / RFU LINC00158 (11744669_a_at) / Fold change /veh LINC00158 (11744669_a_at) / RFU DUSP10 (11751237_a_at) / Fold change /veh DUSP10 (11751237_a_at) / RFU ID3 (11757404_x_at) / Fold change /veh ID3 (11757404_x_at) / RFU PLEKHG5 (11737974_s_at) / Fold change /veh PLEKHG5 (11737974_s_at) / RFU LRRC4B (11730491_at) / Fold change /veh LRRC4B (11730491_at) / RFU GIMAP4 (11747438_a_at) / Fold change /veh GIMAP4 (11747438_a_at) / RFU KRT8 (11758183_x_at) / Fold change /veh KRT8 (11758183_x_at) / RFU CNN1 (11734310_a_at) / Fold change /veh CNN1 (11734310_a_at) / RFU VPS37D (11726825_at) / Fold change /veh VPS37D (11726825_at) / RFU C10orf10 (11716522_x_at) / Fold change /veh C10orf10 (11716522_x_at) / RFU KIR2DL2 /// KIR2DL4 /// KIR2DL5A /// KIR2DL5B /// KIR2DS1 /// KIR2DS2 /// KIR2DS3 /// KIR2DS4 /// KIR3DL3 /// KIR3DL3 /// KIR3DS1 (11738374_at) / Fold change /veh KIR2DL2 /// KIR2DL4 /// KIR2DL5A /// KIR2DL5B /// KIR2DS1 /// KIR2DS2 /// KIR2DS3 /// KIR2DS4 /// KIR3DL3 /// KIR3DL3 /// KIR3DS1 (11738374_at) / RFU C1QL1 (11718748_at) / Fold change /veh C1QL1 (11718748_at) / RFU TMPRSS4 (11747572_a_at) / Fold change /veh TMPRSS4 (11747572_a_at) / RFU HAMP (11756126_x_at) / Fold change /veh HAMP (11756126_x_at) / RFU RNFT2 (11725882_a_at) / Fold change /veh RNFT2 (11725882_a_at) / RFU NR4A2 (11747474_a_at) / Fold change /veh NR4A2 (11747474_a_at) / RFU ABCC12 (11746883_a_at) / Fold change /veh ABCC12 (11746883_a_at) / RFU TMEM136 (11760407_x_at) / Fold change /veh TMEM136 (11760407_x_at) / RFU CLDN22 /// WWC2 (11732394_at) / Fold change /veh CLDN22 /// WWC2 (11732394_at) / RFU HLA-DPB1 (11760878_x_at) / Fold change /veh HLA-DPB1 (11760878_x_at) / RFU SPINT1 (11716480_a_at) / Fold change /veh SPINT1 (11716480_a_at) / RFU GAP43 (11754022_s_at) / Fold change /veh GAP43 (11754022_s_at) / RFU A4GNT (11735810_at) / Fold change /veh A4GNT (11735810_at) / RFU PRB3 (11715151_x_at) / Fold change /veh PRB3 (11715151_x_at) / RFU TUBB4B (11761932_at) / Fold change /veh TUBB4B (11761932_at) / RFU CAPN14 (11732068_a_at) / Fold change /veh CAPN14 (11732068_a_at) / RFU TMCC2 (11721928_a_at) / Fold change /veh TMCC2 (11721928_a_at) / RFU IRGQ (11745062_a_at) / Fold change /veh IRGQ (11745062_a_at) / RFU FAM174B (11720279_a_at) / Fold change /veh FAM174B (11720279_a_at) / RFU TMPRSS4 (11748680_a_at) / Fold change /veh TMPRSS4 (11748680_a_at) / RFU FAM212B (11763350_a_at) / Fold change /veh FAM212B (11763350_a_at) / RFU PLEKHG5 (11743358_a_at) / Fold change /veh PLEKHG5 (11743358_a_at) / RFU ZSCAN30 (11745921_a_at) / Fold change /veh ZSCAN30 (11745921_a_at) / RFU CMKLR1 (11741424_a_at) / Fold change /veh CMKLR1 (11741424_a_at) / RFU LOC101060620 /// MAPK8IP1 (11723275_at) / Fold change /veh LOC101060620 /// MAPK8IP1 (11723275_at) / RFU SPTSSB (11747773_x_at) / Fold change /veh SPTSSB (11747773_x_at) / RFU PRSS12 (11739890_at) / Fold change /veh PRSS12 (11739890_at) / RFU BIN1 (11741810_x_at) / Fold change /veh BIN1 (11741810_x_at) / RFU WNT11 (11732464_a_at) / Fold change /veh WNT11 (11732464_a_at) / RFU C10orf10 (11716521_a_at) / Fold change /veh C10orf10 (11716521_a_at) / RFU C5orf56 (11738089_at) / Fold change /veh C5orf56 (11738089_at) / RFU CYB561 (11721691_x_at) / Fold change /veh CYB561 (11721691_x_at) / RFU ANKRD19P (11752326_a_at) / Fold change /veh ANKRD19P (11752326_a_at) / RFU OR2T12 /// OR2T33 /// OR2T8 (11738714_s_at) / Fold change /veh OR2T12 /// OR2T33 /// OR2T8 (11738714_s_at) / RFU VCAN (11748164_a_at) / Fold change /veh VCAN (11748164_a_at) / RFU JSRP1 (11732532_at) / Fold change /veh JSRP1 (11732532_at) / RFU KRTAP10-11 (11738290_x_at) / Fold change /veh KRTAP10-11 (11738290_x_at) / RFU MYO3A (11730013_a_at) / Fold change /veh MYO3A (11730013_a_at) / RFU EBF3 (11725865_a_at) / Fold change /veh EBF3 (11725865_a_at) / RFU CAMK2N1 (11719241_x_at) / Fold change /veh CAMK2N1 (11719241_x_at) / RFU C5orf56 (11738088_a_at) / Fold change /veh C5orf56 (11738088_a_at) / RFU OLFML3 (11715873_a_at) / Fold change /veh OLFML3 (11715873_a_at) / RFU LOC100653217 /// NTM (11731650_a_at) / Fold change /veh LOC100653217 /// NTM (11731650_a_at) / RFU MAPK11 (11762145_a_at) / Fold change /veh MAPK11 (11762145_a_at) / RFU FIZ1 (11724087_x_at) / Fold change /veh FIZ1 (11724087_x_at) / RFU OASL (11726364_x_at) / Fold change /veh OASL (11726364_x_at) / RFU SOX15 (11748057_x_at) / Fold change /veh SOX15 (11748057_x_at) / RFU CD79A (11719716_a_at) / Fold change /veh CD79A (11719716_a_at) / RFU HIST1H1D (11736915_at) / Fold change /veh HIST1H1D (11736915_at) / RFU CASKIN2 (11723855_a_at) / Fold change /veh CASKIN2 (11723855_a_at) / RFU LOC730098 (11760151_x_at) / Fold change /veh LOC730098 (11760151_x_at) / RFU OR4N2 (11742367_at) / Fold change /veh OR4N2 (11742367_at) / RFU PRRT2 (11749266_a_at) / Fold change /veh PRRT2 (11749266_a_at) / RFU SNX32 (11753110_a_at) / Fold change /veh SNX32 (11753110_a_at) / RFU CDHR5 (11726645_a_at) / Fold change /veh CDHR5 (11726645_a_at) / RFU RCAN1 (11760418_a_at) / Fold change /veh RCAN1 (11760418_a_at) / RFU FAM167A (11723789_a_at) / Fold change /veh FAM167A (11723789_a_at) / RFU FAM26E (11764081_at) / Fold change /veh FAM26E (11764081_at) / RFU ISYNA1 (11749810_s_at) / Fold change /veh ISYNA1 (11749810_s_at) / RFU ACY1 (11761880_at) / Fold change /veh ACY1 (11761880_at) / RFU 11764098_at / Fold change /veh 11764098_at / RFU SAMD14 (11745864_x_at) / Fold change /veh SAMD14 (11745864_x_at) / RFU NPB (11741838_a_at) / Fold change /veh NPB (11741838_a_at) / RFU TMPRSS6 (11731388_a_at) / Fold change /veh TMPRSS6 (11731388_a_at) / RFU KRTAP10-2 (11738614_at) / Fold change /veh KRTAP10-2 (11738614_at) / RFU ARHGAP8 /// PRR5-ARHGAP8 (11727945_x_at) / Fold change /veh ARHGAP8 /// PRR5-ARHGAP8 (11727945_x_at) / RFU KRTAP5-7 /// NADSYN1 (11734609_at) / Fold change /veh KRTAP5-7 /// NADSYN1 (11734609_at) / RFU RASL12 (11751679_a_at) / Fold change /veh RASL12 (11751679_a_at) / RFU CDKN2B (11736163_a_at) / Fold change /veh CDKN2B (11736163_a_at) / RFU PRF1 (11729649_at) / Fold change /veh PRF1 (11729649_at) / RFU, ZNF638 /// ZNF638-IT1 / Fold change vs veh, ZNF638 /// ZNF638-IT1 / RFU, PANK3 / Fold change vs veh, PANK3 / RFU, SH3YL1 / Fold change vs veh, SH3YL1 / RFU, ZEB2 / Fold change vs veh, ZEB2 / RFU, NRIP1 / Fold change vs veh, NRIP1 / RFU, PTTG1IP / Fold change vs veh, PTTG1IP / RFU, CAPN2 / Fold change vs veh, CAPN2 / RFU, MED14 / Fold change vs veh, MED14 / RFU, SNORA58 / Fold change vs veh, SNORA58 / RFU, C1orf63 / Fold change vs veh, C1orf63 / RFU, LRRFIP1 / Fold change vs veh, LRRFIP1 / RFU, NDUFAF7 / Fold change vs veh, NDUFAF7 / RFU, SLC12A2 / Fold change vs veh, SLC12A2 / RFU, IBTK / Fold change vs veh, IBTK / RFU, ESF1 / Fold change vs veh, ESF1 / Fold change vs veh, TMEM50B / RFU, TAOK1 / Fold change vs veh, TAOK1 / RFU, ACBD3 / Fold change vs veh, ACBD3 / RFU, TMA16 / Fold change vs veh, TMA16 / RFU, RWDD3 / Fold change vs veh, RWDD3 / RFU, BCAT1 / Fold change vs veh, BCAT1 / RFU, EDEM3 / Fold change vs veh, EDEM3 / RFU, TMEM33 / Fold change vs veh, TMEM33 / RFU, WDR75 / Fold change vs veh, WDR75 / RFU, AHCTF1 / Fold change vs veh, AHCTF1 / RFU, TFRC / Fold change vs veh, TFRC / RFU, ZDHHC17 / Fold change vs veh, ZDHHC17 / RFU, NOM1 / Fold change vs veh, NOM1 / RFU, ARL8B / Fold change vs veh, ARL8B / RFU, ZBTB11 / Fold change vs veh, ZBTB11 / RFU, TAMM41 / Fold change vs veh, TAMM41 / RFU, KIAA1704 /// LOC100996395 / Fold change vs veh, KIAA1704 /// LOC100996395 / RFU, ING1 / Fold change vs veh, ING1 / RFU, TRMT61B / Fold change vs veh, TRMT61B / RFU, FUBP3 / Fold change vs veh, FUBP3 / RFU, TP53 / Fold change vs veh, TP53 / RFU, TNKS2 / Fold change vs veh, TNKS2 / RFU, ZFP14 / Fold change vs veh, ZFP14 / RFU, ACTR2 / Fold change vs veh, ACTR2 / RFU, PPP3R1 / Fold change vs veh, PPP3R1 / RFU, PIK3R1 / Fold change vs veh, PIK3R1 / RFU, HNRNPA1 / Fold change vs veh, HNRNPA1 / RFU, RNF170 / Fold change vs veh, RNF170 / RFU, ZNF28 / Fold change vs veh, ZNF28 / RFU, RNGTT / Fold change vs veh, RNGTT / RFU, OGT / Fold change vs veh, OGT / RFU, BRD1 / Fold change vs veh, BRD1 / RFU, MARS / Fold change vs veh, MARS / RFU, ZNF655 / Fold change vs veh, ZNF655 / RFU, FAHD1 / Fold change vs veh, FAHD1 / RFU, BDP1 / Fold change vs veh, BDP1 / RFU, LRRCC1 / Fold change vs veh, LRRCC1 / RFU, ARID1A / Fold change vs veh, ARID1A / RFU, ZNF146 / Fold change vs veh, ZNF146 / RFU, ZNF330 / Fold change vs veh, ZNF330 / RFU, GPN3 / Fold change vs veh, GPN3 / RFU, C9orf123 / Fold change vs veh, C9orf123 / RFU, N4BP2L2 / Fold change vs veh, N4BP2L2 / RFU, ARFIP1 / Fold change vs veh, ARFIP1 / RFU, FAM179B / Fold change vs veh, FAM179B / RFU, BCL10 / Fold change vs veh, BCL10 / RFU, UHRF1BP1L / Fold change vs veh, UHRF1BP1L / RFU, BET1 / Fold change vs veh, BET1 / RFU, CNOT2 / Fold change vs veh, CNOT2 / RFU, ZNF268 / Fold change vs veh, ZNF268 / Fold change vs veh, ZNF507 / RFU, DGCR2 / Fold change vs veh, DGCR2 / RFU, WDSUB1 / Fold change vs veh, WDSUB1 / Fold change vs veh, HSP90B1 /// MIR3652 / RFU, ADSS / Fold change vs veh, ADSS / RFU, GK / Fold change vs veh, GK / RFU, ZNF148 / Fold change vs veh, ZNF148 / RFU, TAF9 / Fold change vs veh, TAF9 / RFU, SLC1A5 / Fold change vs veh, SLC1A5 / RFU, SLMO2 / Fold change vs veh, SLMO2 / RFU, ABCC4 / Fold change vs veh, ABCC4 / RFU, LOC101060439 /// RAP1B / Fold change vs veh, LOC101060439 /// RAP1B / RFU, RFX7 / Fold change vs veh, RFX7 / RFU, GTPBP10 / Fold change vs veh, GTPBP10 / RFU, CNEP1R1 / Fold change vs veh, CNEP1R1 / RFU, BIVM-ERCC5 /// ERCC5 / Fold change vs veh, BIVM-ERCC5 /// ERCC5 / RFU, ILF3 / Fold change vs veh, ILF3 / RFU 11762660_at / Fold change /veh 11762660_at / RFU VCAN (11757783_s_at) / Fold change /veh VCAN (11757783_s_at) / RFU DDX43 (11728927_at) / Fold change /veh DDX43 (11728927_at) / RFU KRT8 (11758188_x_at) / Fold change /veh KRT8 (11758188_x_at) / RFU NKD1 (11759106_at) / Fold change /veh NKD1 (11759106_at) / RFU SRD5A1 (11742802_a_at) / Fold change /veh SRD5A1 (11742802_a_at) / RFU TPSAB1 /// TPSB2 (11721975_s_at) / Fold change /veh TPSAB1 /// TPSB2 (11721975_s_at) / RFU GSTM3 (11746129_a_at) / Fold change /veh GSTM3 (11746129_a_at) / RFU IL23R (11737362_x_at) / Fold change /veh IL23R (11737362_x_at) / RFU TMEM51 (11727254_a_at) / Fold change /veh TMEM51 (11727254_a_at) / RFU PIWIL2 (11732686_x_at) / Fold change /veh PIWIL2 (11732686_x_at) / RFU ORM1 (11744905_x_at) / Fold change /veh ORM1 (11744905_x_at) / RFU CCDC152 (11743942_at) / Fold change /veh CCDC152 (11743942_at) / RFU ECM1 (11717891_a_at) / Fold change /veh ECM1 (11717891_a_at) / RFU IL23R (11748794_a_at) / Fold change /veh IL23R (11748794_a_at) / RFU TNFAIP8L3 (11732012_x_at) / Fold change /veh TNFAIP8L3 (11732012_x_at) / RFU MBOAT4 (11741988_at) / Fold change /veh MBOAT4 (11741988_at) / RFU 11764193_at / Fold change /veh 11764193_at / RFU TMEM53 (11763286_at) / Fold change /veh TMEM53 (11763286_at) / RFU MAGEB2 (11727129_at) / Fold change /veh MAGEB2 (11727129_at) / RFU TMEM200A (11744735_a_at) / Fold change /veh TMEM200A (11744735_a_at) / RFU CCDC152 (11751479_a_at) / Fold change /veh CCDC152 (11751479_a_at) / RFU FAM211A (11726209_a_at) / Fold change /veh FAM211A (11726209_a_at) / RFU RGS16 (11746705_a_at) / Fold change /veh RGS16 (11746705_a_at) / RFU VCAN (11755009_s_at) / Fold change /veh VCAN (11755009_s_at) / RFU RHOB (11743442_s_at) / Fold change /veh RHOB (11743442_s_at) / RFU RGS16 (11720943_a_at) / Fold change /veh RGS16 (11720943_a_at) / RFU RGS16 (11720944_at) / Fold change /veh RGS16 (11720944_at) / RFU, VPS4B / Fold change vs veh, VPS4B / RFU, CREB1 / Fold change vs veh, CREB1 / RFU, DNAJC13 / Fold change vs veh, DNAJC13 / RFU, GNAQ / Fold change vs veh, GNAQ / RFU, CDK5R1 / Fold change vs veh, CDK5R1 / RFU, ZRANB3 / Fold change vs veh, ZRANB3 / RFU, CUL4A / Fold change vs veh, CUL4A / RFU, CCNY / Fold change vs veh, CCNY / RFU, UFL1 / Fold change vs veh, UFL1 / RFU, COG3 / Fold change vs veh, COG3 / RFU, DIAPH2 / Fold change vs veh, DIAPH2 / RFU, SKA2 / Fold change vs veh, SKA2 / RFU, AFF3 / Fold change vs veh, AFF3 / RFU, LMF1 / Fold change vs veh, LMF1 / RFU, IPO11 / Fold change vs veh, IPO11 / RFU, DFFB / Fold change vs veh, DFFB / RFU, FOXP1 / Fold change vs veh, FOXP1 / RFU, CARD8 / Fold change vs veh, CARD8 / RFU, STRN3 / Fold change vs veh, STRN3 / RFU, ADK / Fold change vs veh, ADK / RFU, RASSF2 / Fold change vs veh, RASSF2 / RFU, WIPF1 / Fold change vs veh, WIPF1 / RFU, LARP1B / Fold change vs veh, LARP1B / RFU, RASA1 / Fold change vs veh, RASA1 / RFU, RB1 / Fold change vs veh, RB1 / RFU, PPFIA1 / Fold change vs veh, PPFIA1 / RFU, MAT2A / Fold change vs veh, MAT2A / RFU, CCT5 / Fold change vs veh, CCT5 / RFU, WDR92 / Fold change vs veh, WDR92 / RFU, CUX1 / Fold change vs veh, CUX1 / RFU, TTC7A / Fold change vs veh, TTC7A / RFU, TMEM135 / Fold change vs veh, TMEM135 / RFU, DEPTOR / Fold change vs veh, DEPTOR / RFU, CPM / Fold change vs veh, CPM / RFU, DNAJB6 / Fold change vs veh, DNAJB6 / RFU, CACNA2D3 / Fold change vs veh, CACNA2D3 / RFU, DTX4 / Fold change vs veh, DTX4 / RFU, TFCP2 / Fold change vs veh, TFCP2 / RFU, GMCL1 /// GMCL1P1 / Fold change vs veh, GMCL1 /// GMCL1P1 / RFU, AEBP2 / Fold change vs veh, AEBP2 / RFU, SNHG1 /// SNORD22 /// SNORD25 /// SNORD26 /// SNORD27 /// SNORD28 /// SNORD29 /// SNORD31 / Fold change vs veh, SNHG1 /// SNORD22 /// SNORD25 /// SNORD26 /// SNORD27 /// SNORD28 /// SNORD29 /// SNORD31 / Fold change (Aza/veh), C12orf56 (ProbeSet 11735607_a_at) / Fold change (ACY-1035/veh), C12orf56 (ProbeSet 11735607_a_at) / Fold change (Aza/veh), FGFR1OP (ProbeSet 11751329_s_at) / Fold change (ACY-1035/veh), FGFR1OP (ProbeSet 11751329_s_at) / Fold change (Aza/veh), VPS36 (ProbeSet 11739960_a_at) / Fold change (ACY-1035/veh), VPS36 (ProbeSet 11739960_a_at) / RFU SYPL1 (11715823_x_at) / Fold change /veh SYPL1 (11715823_x_at) / RFU IGFBP7 (11715501_s_at) / Fold change /veh IGFBP7 (11715501_s_at) / RFU REEP3 (11722064_at) / Fold change /veh REEP3 (11722064_at) / RFU IGLL1 (11728026_x_at) / Fold change /veh IGLL1 (11728026_x_at): dose or concentration left out as unconfirmed. The note with it: ProbeSet 11721969_s_at; LIST B.

In the case of `Nc1ccc(-c2cccs2)cc1NC(=O)c1ccc2c(c1)cc(C1CC1)n2CCN1CCOCC1` [ACY-1035], the “RFU, BDP1” value is on record as 485.00 RFU.
